Test results published in patent US5668157A, “Cyanoguanidines as K-channel blockers” (Pharmacia & Upjohn Company, priority 1996, dated 1997).

Experiments:
[1] = tested on: K^+ channel, rabbit mesenteric artery (RMA) rings; assay: Inhibition of pinacidil-induced relaxation of norepinephrine-contracted isolated rabbit mesenteric artery (RMA) rings (K^+ channel antagonism); assay type: cell-based; conditions: Oryctolagus cuniculus, 0.25 h, pinacidil 1 μM, norepinephrine 5 μM, read-out: RMA K^+ Antagonism % I (percent inhibition of pinacidil relaxation at 15 minutes); for inhibition at 0.1 µM: conc. 0.1 μM; for inhibition at 0.3 µM: conc. 0.3 μM; for inhibition at 10 µM: conc. 10 μM
Method: The results for potassium channel blocking were obtained by using isolated rabbit mesenteric artery (RMA) procedures. Norepinephrine (5 μM) was used to contract the RMA rings twice, with an hour separating the two contractions. During this hour the tissues equilibrated in physiological salt solution at a resting tension of 1 gram. Upon the plateau of the second contraction 1 μM pinacidil was added to all tissues and the resulting relaxation time course was studied for thirty minutes. […] By studying the ability of the test compounds to inhibit this pinacidil-induced relaxation, the degree of potassium antagonism could be determined. The compounds were applied to the tissues for one hour between the two contractions and the pinacidil-induced relaxation was studied in the continuing presence of the compounds. Thus, the total time of pretreatment with the test compound was 75 minutes before the addition of pinacidil.
(§1) Data for K^+ channel antagonist activity on rabbit mesenteric artery (RMA) and natriuretic efficacy after […] (IP) administration to rats are collected in Table II.
^a Lowest inhibitor concentration (μM) that gave greater than 20%
inhibition or lowest concentration tested.
^b This is a measure of a compound's ability to inhibit the relaxatio
of norepinephrine (5 μM) contracted rabbit mesenteric artery rings by
pinacidil (1 μM). It is expressed as percent inhibition. Compounds wit
65% or greater inhibition at 5 μM are considered to be active, with
20-65% inhibition moderately active and with less than 20% inhibition

[2] = Diuretic screen: urinary Na^+ excretion after IP administration to rats; assay type: in vivo, rat (female Harlan Sprague-Dawley); conditions: rat, IP, 5, 15 and 30 mg/kg, 5 hour test period
Method: as §1
The diuretic activity was determined in female Harlan Sprague-Dawley rats weighing 200 to 230 grams that were fasted 15 hours overnight, and then were deprived of both food and water for an additional hour prior to dosing. […] It approximates the area under the dose response curve. The vehicle was 20% dimethylacetamide (DMA; v/v) in a pH 7.4 phosphate buffer (0.58% Na2 HPO4 and 0.13% NaH2 PO4.H2 O). Sufficient drug was suspended in 1 to 2 ml of this vehicle to deliver doses of 5, 15 and 30 mg/kg in a volume of 0.5 ml (2-4 rats/dose). At least 2 vehicle control rats, and, for most tests, 2 standard diuretic treated rats were included in each experiment. Standards used as comparators included the K^+ retaining diuretic amiloride and the K^+ wasting diuretics furosemide, hydrochlorothiazide and metolazone.
Following their IP doses, the rats' urinary bladders were gently compressed to eliminate all pretreatment urine, and two identically treated rats were placed in a stainless steel metabolism cage equipped with a graduated test tube to collect voided urine. At 2 and 5 hours post treatment, the rats' bladders were again compressed, the volume of urine excreted by the pair of rats was recorded, and aliquots of urine were retained for analysis of Na^+ and K^+ concentrations with a NOVA-13 selective ion analyzer. Following the 5 hour urine collection, the rats were returned to their stock cages, and at least 1 week of recovery was allowed between a maximum of 3 diuretic tests.
The electrolyte concentrations detected in these urine samples were manually multiplied by their respective volumes to determine total milliequivalent (mEq) excretion of Na^+ and K^+ per pair of rats, and the results obtained with multiple racks per drug treatment were averaged. Increases in urinary Na^+ excretion of 50% or more above the pooled control tests were regarded as reflecting activity.
^c This represents the net increase (above control) in urinary
Na^+ excretion (μEq) for the 5 hour test period divided by the
total of the three drug doses (mg/kg) administered IP in the stage II
diuretic screen in rats. It approximates the area under the dose response

[3] = tested on: K^+ channel, rabbit mesenteric artery (RMA) rings; conditions: pinacidil 1 μM, norepinephrine-contracted RMA rings; cited from earlier work

SMILES | 5 h Net Natriuretic Efficacy (net increase above control in urinary Na^+ excretion divided by total of three doses) [2] [μEq Na^+ /mg/kg] | inhibition at 10 µM [1] [%] | further results
N#CN=C(Nc1cnc(Cl)c(N)c1)NC1(c2ccccc2)CCC1 [Compound 1, N-(5-Amino-6-chloro-3-pyridyl)-N"-cyano-N'-(1-phenylcyclobutyl)guanidine] | 39 |  | inhibition at 0.1 µM [1]: 90%
Cc1nc(N)ccc1NC(=NC#N)NC1(c2ccccc2)CCC1 [Compound 2, N-(6-Amino-2-methyl-3-pyridyl)-N"-cyano-N'-(1-phenylcyclobutyl)guanidine, methanol solvate] | 77 |  | inhibition at 0.3 µM [1]: 96%
N#CN=C(Nc1cncc(N)c1)NC1(c2ccccc2)CCC1 [Compound 3, N-(5-Amino-3-pyridyl)-N"-cyano-N'-(1-phenylcyclobutyl)guanidine] | 50 |  | inhibition at 0.3 µM [1]: 93%
CN(C)c1ncccc1NC(=NC#N)NC1(c2ccccc2)CCC1 [Compound 4, N-[2-(Dimethylamino)-3-pyridyl]-N"-cyano-N'-(1-phenylcyclobutyl)guanidine] | 10 |  | inhibition at 2 µM ([1]; conc. 2.0 μM): 87%
C[C@@H](NC(=NC#N)Nc1cccnc1N(C)C)c1ccccc1 [Compound 5, (R)-N-[2-(Dimethylamino)-3-pyridyl]-N"-cyano-N'-(1-phenylethyl)guanidine] | 15 |  | inhibition at 5 µM ([1]; conc. 5 μM): 17.4%
CC[C@@H](N=C(NC#N)Nc1cccnc1Cl)c1ccccc1 [Compound 6, (R)-N-(2-chloro-3-pyridyl)-N'-cyano-N"-(1-phenylpropyl)guanidine] | 48 |  | inhibition at 0.1 µM [1]: 77.5%
N#CN=C(Nc1ccc(NCCF)nc1)NC1(c2ccccc2)CCC1 [Compound 7, N-[6(2-Fluoroethylamino)-3-pyridyl]-N"-cyano-N'-(1-phenylcyclobutyl)guanidine] | 60 |  | inhibition at 1 µM ([1]; conc. 1.0 μM): 24.3%
CC[C@@H](NC(=NC#N)Nc1ccc(C)nc1)c1ccccc1 [Compound 8, (R)-N-(6-Methyl-3-pyridyl)-N"-cyano-N'-(1-phenylpropyl)guanidine] | 25 | 84.1 | 
CC[C@@H](NC(=NC#N)Nc1cncc(Br)c1)c1ccccc1 [Compound 9, (R)-N-(5-Bromo-3-pyridyl)-N"-cyano-N'-(1-phenylpropyl)guanidine] | 12 | 94.6 | 
CC[C@@H](NC(=NC#N)Nc1ccc(NCCF)nc1)c1ccccc1 [Compound 10, (R)-N-[6-(2-Fluoroethylamino)-3-pyridyl]-N"-cyano-N'-(1-phenylpropyl)guanidine] | 34 | 72.3 | 
CC[C@@H](NC(=NC#N)Nc1cccnc1C)c1ccccc1 [Compound 11, (R)-N-(2-Methyl-3-pyridyl)-N"-cyano-N'-(1-phenylpropyl)guanidine] | 25 | 91.6 | 
CC[C@@H](NC(=NC#N)Nc1cncc(N)c1)c1ccccc1 [Compound 12, (R)-N-(5-Amino-3-pyridyl)-N"-cyano-N'-(1-phenylpropyl)guanidine] | 26 | 85.8 | 
CC(=O)Nc1cncc(NC(=NC#N)NC2(c3ccccc3)CCC2)c1 [Compound 13, N-(5-Acetylamino-3-pyridyl)-N"-cyano-N'-(1-phenylcyclobutyl)guanidine] | 15 | 6.4 | 
CC[C@@H](NC(=NC#N)Nc1ccc(NS(C)(=O)=O)nc1)c1ccccc1 [Compound 14, (R)-N-(6-Methanesulfonylamino-3-pyridyl)-N"-cyano-N'-(1-phenylpropyl)guanidine] | 21 |  | inhibition at 30 µM ([1]; conc. 30 μM): 2.3%
CC(N/C(=N\C#N)Nc1ccncc1)C(C)(C)C (centres unmarked) [pinacidil] |  |  | K^+ channel dependent vasodilation by pinacidil [3]: maximal K^+ channel dependent vasodilation
